Tested on: NLRP3
Experiment: IL-1β secretion assay in PMA-differentiated, LPS/nigericin-stimulated THP-1 cells (ELISA)
Assay type: cell-based
Details: Homo sapiens, 25 ng/mL LPS, nigericin
Protocol: Compounds as provided herein were tested in the following assay. Cell culture medium employed contained RPMI 1640 medium (89%), FBS (10%), Pen/Strep (1%), and 2-mercaptoethanol (0.05 mM). Freezing medium was made up of 90% FBS and 10% DMSO. THP-1 cells were removed from the liquid nitrogen and placed into a 37° C. water bath to thaw, until signs of ice dissipated. The cells were then added to 9 mL of warm cell culture medium and centrifuged for 5 minutes at 1000 rpm. The supernatant was discarded, and the cells were resuspended in new cell culture medium. THP-1 cells were then split and cultured in the cell culture medium, being passaged every 2-3 days with the cell density will be maintained between 5×10^5 and 1.5×10^6 viable cells/mL.
PMA was dissolved in DMSO to make a stock solution at 5 mg/ml and stored in 10 μl aliquots at −20° C. for single use. PMA is added to normal growth medium. LPS was diluted with 1 mL of water solution to provide a 1 mg/mL stock solution and stored in 15 μl aliquots at −20° C. for single use. Nigericin is diluted in ice cold 100% ethanol to 5 mg/ml (6.7 mM) and stored in 75 μL aliquots at −20° C. for single use. Serum-free media contains RPMI 1640 medium (99%), Pen/Strep (1%), and 2-mercaptoethanol (0.05 mM). The two control conditions used to qualify and normalize test compound dose-response curves were as follows: High Control=25 ng/mL LPS, 5 μM Nigericin, 0.5% DMSO, Low Control=25 ng/ml, LPS, 0.5% DMSO.
THP-1 cells were diluted to provide a suspension at a concentration of 1.0×10^6 cells/mL with the total volume of suspension required to enable the desired number of assay plates. The growth media was supplemented with PMA (5 ng/mL final concentration) and the cells were incubated at 37° C. under a humidified atmosphere of 5% CO2 for 40 h.
All media was carefully aspirated from each culture flask. The cells were washed carefully with 1× DPBS. The cells were then briefly digested with trypsin LE for 5 minutes at 23° C. and immediately resuspended in cell growth media. After resuspension, the cells were centrifuged at 1000 rpm for 3 minutes and the supernatant was discarded. The cells were resuspended in DPBS and once again centrifuged at 1000 rpm for 5 minutes. The supernatant was discarded and the cell pellet was resuspended in serum-free media supplemented with LPS (25 ng/mL final concentration) to enable the distribution of 30K THP-1 cells within 45 μL of media into each well of 384-well PDL-coated plates. The 384-well plates were then incubated at 37° C. under a humidified atmosphere of 5% CO2 for 2 h. Following this period, test compounds were dispensed by Tecan across the desired concentration range with all wells normalized to a final 0.5% DMSO concentration. The plates were then then incubated at 37° C. under a humidified atmosphere of 5% CO2 for 1 h. Following this period, 5 μL of the 5 mg/mL nigericin stock solution was added to each of the appropriate wells and plates were centrifuged at 1000 rpm for 30 seconds. The plates were the immediately reintroduced to the incubator at 37° C. under a humidified atmosphere of 5% CO2 for 2 h. After this time, 35 μL/well of supernatant was collected and transferred into v-bottom plate and centrifuged at 1000 rpm for 1 minute. These supernatant aliquots were analyzed using an IL-Iβ detection kit as described below. If needed, the test samples could be snap frozen and stored at −80° C. until analyzed.
To prepare each ELISA plate, capture antibody (mAb Mt175) was diluted with PBS to a final concentration of 2 μg/mL and then 20 μL of this solution was added to each well of the ELISA plate. Each plate was allowed to incubate overnight at 4° C. The next day, the capture antibody solution was removed and discarded. Each ELISA plate was washed 4 times with PBST followed by the addition of 25 uL/well of blocking buffer (Licor-927-40010) supplemented with 0.1% Tween 20. Each ELISA plate was then allowed to incubate for 1 hour at 23° C. […]

Compound	IC50 [nM]	IC50 (class symbol) [nM]
O=C(Cn1nc(C(F)F)n2c(cc3scnc32)c1=O)Nc1ncc(F)cn1 [Example 6, 2-(5-(difluoromethyl)-8-oxothiazolo[5′,4′:4,5]pyrrolo[1,2-d][1,2,4]triazin-7(8H)-yl)-N-(5-fluoropyrimidin-2-yl)acetamide]	149	< 10000
O=C(Cn1nc(CF)n2c(cc3sccc32)c1=O)Nc1ncc(F)cn1 [Example 5, 2-(5-(fluoromethyl)-8-oxothieno[2′,3′:4,5]pyrrolo [1,2-d][1,2,4]triazin-7(8H)-yl)-N-(5-fluoropyrimidin-2-yl)acetamide]	94	< 10000
CC1(O)CC(NC(=O)Cn2nc(C(F)F)n3c(cc4sccc43)c2=O)C1 (stereo not drawn) [Example 3, 2-(5-(difluoromethyl)-8-oxothieno[2′,3′:4,5]pyrrolo[1,2-d][1,2,4]triazin-7(8H)-yl)-N-(3-cis-hydroxy-3-methylcyclobutyl)acetamide]	101	< 10000
O=C(Cn1nc(C(F)F)n2c(cc3sccc32)c1=O)Nc1ncc(F)cn1 [Example 1, 2-(5-(difluoromethyl)-8-oxothieno[2′,3′:4,5]pyrrolo[1,2-d][1,2,4]triazin-7(8H)-yl)-N-(5-fluoropyrimidin-2-yl)acetamide]	162	< 10000
N#Cc1cnc(NC(=O)Cn2nc(C(F)F)n3c(cc4sccc43)c2=O)c(F)c1 [Example 4, N-(5-cyano-3-fluoropyridin-2-yl)-2-[12-(difluoromethyl)-9-oxo-5-thia-1,10,11-triazatricyclo[6.4.0.02,6]dodeca-2(6),3,7,11-tetraen-10-yl]acetamide]	252	< 10000
O=C(Cn1nc(C(F)F)n2c(cc3sccc32)c1=O)Nc1ncccn1 [Example 2, 2-(5-(difluoromethyl)-8-oxothieno[2′,3′:4,5]pyrrolo[1,2-d][1,2,4]triazin-7(8H)-yl)-N-(pyrimidin-2-yl)acetamide]	341	< 10000

Reference: patent publication US20240391932A1, “COMPOUNDS, COMPOSITIONS AND METHODS” (Nico Therapeutics, Inc., priority 2021, published 2024)
